Measured values reported in ChEMBL document CHEMBL1146939, “Design, synthesis, and biological evaluations of novel oxindoles as HIV-1 non-nucleoside reverse transcriptase inhibitors. Part 2” (Bioorg Med Chem Lett, 2006).
pEC50: −log10 of the molar value.

Columns and labels:
[1] = test system: Human immunodeficiency virus 1; test: Antiviral activity against HIV1 in HEK293T cells; format: functional, organism-based; settings: Human immunodeficiency virus 1, HEK-293T
[2] = test system: HEK293; test: Cytotoxicity against HEK293T cells; format: functional; settings: Homo sapiens
[3] = test system: Human immunodeficiency virus 1; test: Antiviral activity against HIV1 L100I mutant; format: functional, organism-based
[4] = test system: Human immunodeficiency virus 1; test: Antiviral activity against HIV1 K103N mutant; format: functional, organism-based
[5] = test system: Human immunodeficiency virus 1; test: Antiviral activity against HIV1 V106A mutant; format: functional, organism-based
[6] = test system: Human immunodeficiency virus 1; test: Antiviral activity against HIV1 I135T mutant; format: functional, organism-based
[7] = test system: Human immunodeficiency virus 1; test: Antiviral activity against HIV1 I135V mutant; format: functional, organism-based
[8] = test system: Human immunodeficiency virus 1; test: Antiviral activity against HIV1 E138K mutant; format: functional, organism-based
[9] = test system: Human immunodeficiency virus 1; test: Antiviral activity against HIV1 V179E mutant; format: functional, organism-based
[10] = test system: Human immunodeficiency virus 1; test: Antiviral activity against HIV1 Y181C mutant; format: functional, organism-based
[11] = test system: Human immunodeficiency virus 1; test: Antiviral activity against HIV1 Y188L mutant; format: functional, organism-based
[12] = test system: Human immunodeficiency virus 1; test: Antiviral activity against HIV1 F227C mutant; format: functional, organism-based
[13] = test system: Human immunodeficiency virus 1; test: Antiviral activity against HIV1 F227L mutant; format: functional, organism-based

SMILES | pEC50 [1] | CC50 [2] [nM] | further results
Cn1cccc1-c1cccc([C@H]2C[C@]23C(=O)Nc2ccc(Cl)cc23)n1 | 6.25 | > 10000 | 
O=C1Nc2ccc(Cl)cc2[C@@]12C[C@@H]2c1cc2ccccc2s1 | 5.30 | > 10000 | 
O=C1Nc2ccc(Cl)cc2[C@@]12C[C@@H]2c1ccc(Br)cn1 | 7.64 | > 10000 | 
CC(=O)/C=C/c1cccc([C@H]2C[C@]23C(=O)Nc2ccc(Cl)cc23)n1 | 5.74 | 6130 | 
Cc1ccsc1[C@H]1C[C@]12C(=O)Nc1ccc(Cl)cc12 | 6.07 | > 10000 | 
O=C1Nc2ccc(Cl)cc2[C@@]12C[C@@H]2c1ccc(F)cc1 | < 5.00 | > 10000 | 
COc1c(C)cnc([C@H]2C[C@]23C(=O)Nc2ccc(Cl)cc23)c1C | 6.33 | > 10000 | 
CC1(C)[C@H](c2cccc(Br)n2)[C@@]12C(=O)Nc1ccc(Cl)cc12 | 7.55 | 5240 | 
O=C1Nc2ccc(Cl)cc2[C@@]12C[C@@H]2c1cccc(-c2ccccn2)n1 | 6.30 | > 10000 | 
Cn1ccnc1[C@H]1C[C@]12C(=O)Nc1ccc(Cl)cc12 | < 5.00 | > 10000 | 
Cc1cnc([C@H]2C[C@]23C(=O)Nc2ccc(Cl)cc23)c(C)c1[N+](=O)[O-] | 6.74 | > 10000 | 
O=C1Nc2ccc(Cl)cc2[C@@]12C[C@@H]2c1cccnc1 | < 5.00 | > 10000 | 
O=C1Nc2ccc(Cl)cc2[C@@]12C[C@@H]2c1ccc2ccccc2c1 | < 5.00 | > 10000 | 
Cn1cccc1[C@H]1C[C@]12C(=O)Nc1ccc(Cl)cc12 | < 5.00 | > 10000 | 
O=C1Nc2ccc(Cl)cc2[C@@]12C[C@@H]2c1cc2ccccc2o1 | 7.07 | > 10000 | 
Cc1cccc([C@H]2C[C@]23C(=O)Nc2ccc(Cl)cc23)n1 | 7.41 | > 10000 | 
O=C1Nc2ccc(Cl)cc2[C@@]12C[C@@H]2c1nccs1 | < 5.00 | > 10000 | 
Cc1cc([C@H]2C[C@]23C(=O)Nc2ccc(Cl)cc23)oc1C | 7.57 | > 10000 | pEC50 [3]: 6.59; pEC50 [4]: < 5.00; pEC50 [5]: 6.20; pEC50 [6]: 6.63; pEC50 [7]: 7.23; pEC50 [8]: 7.28; pEC50 [9]: 5.61; pEC50 [10]: 5.51; pEC50 [11]: < 5.00; pEC50 [12]: 6.02; pEC50 [13]: 7.20
COC(=O)c1cc(OC)cc(OC)c1[C@H]1C[C@]12C(=O)Nc1ccc(Cl)cc12 | 6.78 | > 10000 | 
O=C1Nc2ccc(Cl)cc2[C@@]12C[C@@H]2c1ccc(Br)o1 | 6.61 | > 10000 | 
COc1ccc([C@H]2C[C@]23C(=O)Nc2ccc(Cl)cc23)cc1 | < 5.00 | > 10000 | 
CCc1ccc([C@H]2C[C@]23C(=O)Nc2ccc(Cl)cc23)s1 | 6.80 | > 10000 | 
O=C1Nc2ccc(Cl)cc2[C@@]12C[C@@H]2c1cccc(-c2cccs2)n1 | 7.80 | > 10000 | pEC50 [3]: 7.00; pEC50 [4]: 5.65; pEC50 [5]: 6.83; pEC50 [6]: 7.17; pEC50 [7]: 6.58; pEC50 [8]: 7.42; pEC50 [9]: 7.22; pEC50 [10]: 7.20; pEC50 [11]: 5.71; pEC50 [12]: 6.50; pEC50 [13]: 6.44
Cn1nnnc1[C@H]1C[C@]12C(=O)Nc1ccc(Cl)cc12 | < 5.00 | > 10000 | 
O=C1Nc2ccc(Cl)cc2[C@@](C#CC2CC2)(C(F)(F)F)O1 [EFAVIRENZ] |  | 10000 | pEC50 [6]: 9.00; pEC50 [10]: 8.96; pEC50 [12]: 8.10
Cc1ccnc2c1NC(=O)c1cccnc1N2C1CC1 [NEVIRAPINE] |  | > 10000 | pEC50 [6]: 6.68; pEC50 [10]: < 5.00; pEC50 [11]: < 5.00; pEC50 [12]: 6.13
